Five compounds from patent US8247565B2, “Sirtuin modulating compounds” (Sirtris Pharmaceuticals, Inc., priority 2007, dated 2012) can be followed below.

Structures can show the parent of a compound that is named as a salt.

In data set [1] the test system is diet induced obesity model (DIO). The data set can be described thus: Blood glucose in diet induced obesity (DIO) mouse model. The settings on record: DIO mice; for blood glucose vs vehicle: from week 2 onwards (FIGS. 3-5); for week 4 fed glucose test vs vehicle: blood glucose remained lower than vehicle. Format: in vivo, C57BL/6 male mice. The text has this:
(§1) The purpose of this example was to compare the efficacy of Compound 1 in salt and free base formulations in two different mouse models of diabetes, a diet induced obesity model (DIO) and the Ob/ob mouse. Blood glucose was the main determinant through the experiment of efficacy.
For the diet induced obesity model, six week old C57BL/6 male mice (Charles River Labs) were fed a high fat diet (60% calories from fat; Research Diets) for approximately 6 weeks until their body weight reached approximately 40 g. Test compounds were administered daily via oral gavage at the indicated doses. The vehicle used was 2% HPMC and 0.2% DOSS. Individual mouse body weights were measured twice weekly. Every 2 weeks throughout the study, mice from each group were bled via the tail vein for determination of blood glucose. Statistical analysis was completed using the JMP program (Version 6). Data were analyzed by a one way ANOVA with comparison to control using a Dunnett's Test. A p value <0.05 indicated a significant difference between groups.
Compound 1 in the free base form was then tested in the DIO model.

A further data set has as its system Ob/ob mouse. Description: Blood glucose in Ob/ob mouse model. It counts as in vivo. The settings on record: ob/ob mice, free base 100 mg/kg.
Source text: as §1
Ob/ob mice are genetically manipulated knockout mice that lack leptin, an important satiety protein that neurologically signals the end of hunger. The leptin mutation is homozygous and a heterozygous strain is included as a control (Ob/+); this group should not show increased weight or blood glucose, aside from the normal effects of being on a high fat diet.
During week 1, there is already a decrease in blood glucose of almost 60 mg/dL from the vehicle group. This trend continued for the fasted glucose at week 2 (FIG. 7) as the Compound 1 group had 158.3 mg/dL glucose compared to 285.3 mg/dL glucose in the vehicle group.

A short description of data set [2]: Salt/free base screening by DSC and TGA (physical stability, polymorphs). Format: physicochemical. Conditions: for polymorphism / phase changes on heating (DSC, TGA): thermal range evaluated by DSC/TGA (FIGS. 1, 2). As for the experimental part: Eight acceptable (Regulatory and pKa) salts were made of Compound 1, namely with hydrochloric acid, sulfuric acid, methanesulfonic acid, maleic acid, phosphoric acid, L-tartaric acid, citric acid, and malic acid. The resulting salts or the free base were then screened on: • 1) Processing, morphology, polymorphs; • 2) Crystal shape, single stable polymorph; • 3) Physical stability; • 4) Open dish accelerated stability (40° C./75% RH); and • 5) Biorelevant dissolution.
Since no other thermal transitions are observed in the DSC or TGA results, it appears Compound 1 exists only as a single phase (i.e. no polymorphs) over the thermal range evaluated.
Since the polymorphic transitions can have significant effects on dissolution and bioavailability of the drug substance, it is practical to select forms of the drug substance that minimize or eliminate the potential for phase transitions.
On the technique in general: Differential scanning calorimetry records heat flow against a reference as temperature is scanned.

Consider `Cc1nc(-c2cccnc2)sc1C(=O)Nc1ccccc1-c1cn2c(CN3CCOCC3)csc2n1` [Compound 1, 4-methyl-N-(2-(3-(morpholinomethyl)imidazo[2,1-b]thiazol-6-yl)phenyl)-2-(pyridin-3-yl)thiazole-5-carboxamide], for which the “blood glucose vs vehicle” value in data set [1] (100 mg/kg/day oral gavage) is “significant reductions in blood glucose”. The “blood glucose vs vehicle group at weeks 2 and 3” value in data set [1] (free base 100 mg/kg/day, weeks 2 (fed) and 3 (fasted), p value less than 0.01) was “significant decrease”. The “decrease in blood glucose from the vehicle group” value in the data set with Ob/ob mouse (week 1 (FIG. 6)) is listed as roughly 60 mg/dL. This compound showed a fasted blood glucose in the data set with Ob/ob mouse (week 2 fasted (FIG. 7), vehicle group 285.3 mg/dL, p less than 0.0001) of 158.3 mg/dL. In the data set with Ob/ob mouse (week 3 fed (FIG. 8)), the “blood glucose relative to vehicle groups” value is given as “significant (p<0.01) decrease”. Further, in data set [2], the “polymorphism / phase changes on heating (DSC, TGA)” value was “no polymorphs”.
As for `O=C(Nc1ccccc1-c1cn2c(CN3CCNCC3)csc2n1)c1cnc2ccccc2n1` [Compound 2, N-(2-(3-(piperazin-1-ylmethyl)imidazo[2,1-b]thiazol-6-yl)phenyl)quinoxaline-2-carboxamide], in data set [1] (100 mg/kg/day oral gavage), the “blood glucose vs vehicle” value is “significant reductions in blood glucose”. The “week 4 fed glucose test vs vehicle” value in data set [1] (100 mg/kg/day) was “significance was lost”.
On to `Cc1nc(-c2cccnc2)sc1C(=O)Nc1ccccc1-c1cn2c(CN3CCOCC3)csc2n1` [HCl salt form of Compound 1], for which the hygroscopicity result in data set [2] (TGA weight loss on heating attributed to water loss) is “hygroscopic”. Also, in data set [2], the “polymorphism / phase changes on heating (DSC, TGA)” value is “transitions between polymorphic forms”.
For `CN(C)C(=N)N=C(N)N` [metformin, reference compound], the “blood glucose vs vehicle” value in data set [1] (400 mg/kg/day oral gavage) is “significant reductions in blood glucose”.
Take `Oc1ccc(C=Cc2cc(O)cc(O)c2)cc1` [resveratrol, reference compound]: the “blood glucose vs vehicle” value in data set [1] (1000 mg/kg/day oral gavage) is “significant reductions in blood glucose”. Also, in data set [1] (1000 mg/kg/day), the “week 4 fed glucose test vs vehicle” value was “significance was lost”.
